Assay results as given in ChEMBL document CHEMBL2203047, “Discovery and SAR of a novel series of non-MPEP site mGlu₅ PAMs based on an aryl glycine sulfonamide scaffold” (Bioorg Med Chem Lett, 2012).
The source made the active and inactive calls. The rule behind the calls is not given here.

Experiments:
[1] = target: T1, Metabotropic glutamate receptor 5 (Rattus norvegicus, UniProt P31424); assay: Ago-positive allosteric modulation of rat mGlu5 receptor expressed in HEK293 cells by fluorescence-based calcium flux assay; format: functional, cell-based
[2] = target: Metabotropic glutamate receptor 5 (Rattus norvegicus) (UniProt P31424); assay: Ago-positive allosteric modulation of rat mGlu5 receptor expressed in HEK293 cells by fluorescence-based calcium flux assay relative to glutamate; format: functional, cell-based
Plasma [3] = assay: (§1) Fraction unbound in rat plasma at 5 uM after 4 hrs by equilibrium dialysis method; format: ADME, cell-free; conditions: 4 h, 5 µM
Plasma [4] = assay: (§2) Fraction unbound in human plasma at 5 uM after 4 hrs by equilibrium dialysis method; format: ADME, cell-free; conditions: 4 h, 5 µM
Liver microsomes = assay: Metabolic stability in rat liver microsomes assessed as compound remaining at 1 uM after 15 mins in presence of NADPH; format: ADME, Microsome; conditions: 0.25 h
[5] = Inhibition of sodium channel
[6] = Ratio of AUC in Sprague-Dawley rat brain at 10 mg/kg, ip to AUC in Sprague-Dawley rat plasma at 10 mg/kg, ip; format: ADME, organism-based; conditions: brain and plasma, read-out: Ratio AUC
[7] = Inhibition of calcium channel
[8] = target: Voltage-gated inwardly rectifying potassium channel KCNH2 (Homo sapiens, UniProt Q12809); assay: Inhibition of human ERG
[9] = as §1; format: ADME, cell-free
[10] = as §2; format: ADME, cell-free
[11] = target: Metabotropic glutamate receptor 8 (Homo sapiens) (UniProt O00222); assay: Positive allosteric modulation of mGluR8
[12] = target: Metabotropic glutamate receptor 7 (Homo sapiens) (UniProt Q14831); assay: Positive allosteric modulation of mGluR7
[13] = target: Metabotropic glutamate receptor 6 (Homo sapiens) (UniProt O15303); assay: Positive allosteric modulation of mGluR6
[14] = target: Metabotropic glutamate receptor 4 (Homo sapiens) (UniProt Q14833); assay: Positive allosteric modulation of mGluR4
[15] = target: Metabotropic glutamate receptor 3 (Homo sapiens) (UniProt Q14832); assay: Positive allosteric modulation of mGluR3
[16] = target: Metabotropic glutamate receptor 2 (Homo sapiens) (UniProt Q14416); assay: Positive allosteric modulation of mGluR2
[17] = target: Metabotropic glutamate receptor 1 (Homo sapiens) (UniProt Q13255); assay: Positive allosteric modulation of mGluR1
[18] = target: T1, Metabotropic glutamate receptor 5; assay: Displacement of [3H]-methoxyPEPy from rat mGlu5 receptor expressed in HEK293 cells after 1 hr by scintillation counting analysis; format: cell-based
[19] = target: T2, Metabotropic glutamate receptor 5 (Homo sapiens, UniProt P41594); assay: Positive allosteric modulation of human mGlu5 receptor expressed in HEK293 cells by fluorescence-based calcium flux assay relative to glutamate; format: functional, cell-based
Target sequence in this assay (P41594 21-1212 limits assumed): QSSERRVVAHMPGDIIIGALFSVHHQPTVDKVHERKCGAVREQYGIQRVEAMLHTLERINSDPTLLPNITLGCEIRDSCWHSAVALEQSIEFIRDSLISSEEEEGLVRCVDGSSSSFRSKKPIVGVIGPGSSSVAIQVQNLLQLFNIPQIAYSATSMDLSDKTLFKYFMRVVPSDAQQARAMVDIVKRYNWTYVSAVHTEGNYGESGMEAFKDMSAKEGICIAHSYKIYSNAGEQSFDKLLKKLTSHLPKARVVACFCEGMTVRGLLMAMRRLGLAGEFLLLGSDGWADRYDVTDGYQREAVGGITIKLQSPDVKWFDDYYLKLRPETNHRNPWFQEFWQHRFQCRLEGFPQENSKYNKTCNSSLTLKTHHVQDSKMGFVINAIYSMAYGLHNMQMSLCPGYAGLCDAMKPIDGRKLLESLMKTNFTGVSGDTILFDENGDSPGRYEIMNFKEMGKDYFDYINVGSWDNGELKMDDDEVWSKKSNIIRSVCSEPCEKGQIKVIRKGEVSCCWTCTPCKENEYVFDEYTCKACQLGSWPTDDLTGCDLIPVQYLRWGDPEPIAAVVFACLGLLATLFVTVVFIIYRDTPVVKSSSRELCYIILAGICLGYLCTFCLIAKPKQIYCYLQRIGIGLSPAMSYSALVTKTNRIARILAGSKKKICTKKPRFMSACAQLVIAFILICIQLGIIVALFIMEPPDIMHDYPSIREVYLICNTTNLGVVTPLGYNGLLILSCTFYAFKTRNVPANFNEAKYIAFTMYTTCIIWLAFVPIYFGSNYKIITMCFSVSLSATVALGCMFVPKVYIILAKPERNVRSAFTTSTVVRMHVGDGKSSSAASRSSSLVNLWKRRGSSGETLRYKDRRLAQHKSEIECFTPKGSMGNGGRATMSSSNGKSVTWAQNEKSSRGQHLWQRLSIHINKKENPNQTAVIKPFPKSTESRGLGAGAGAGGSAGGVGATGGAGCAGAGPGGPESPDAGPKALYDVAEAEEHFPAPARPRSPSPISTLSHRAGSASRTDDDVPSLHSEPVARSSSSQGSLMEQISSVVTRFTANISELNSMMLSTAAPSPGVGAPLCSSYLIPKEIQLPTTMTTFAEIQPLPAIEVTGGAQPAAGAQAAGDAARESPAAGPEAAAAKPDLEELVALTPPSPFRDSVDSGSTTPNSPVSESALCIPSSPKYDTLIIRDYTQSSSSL

[20] = target: T2, Metabotropic glutamate receptor 5; assay: Positive allosteric modulation of human mGlu5 receptor expressed in HEK293 cells by fluorescence-based calcium flux assay; format: functional, cell-based
[21] = target: Metabotropic glutamate receptor 5 (Rattus norvegicus) (UniProt P31424); assay: Displacement of [3H]-methoxyPEPy from rat mGlu5 receptor expressed in HEK293 cells up to 30 uM after 1 hr by scintillation counting analysis; format: cell-based
HEK293 = assay: Selectivity ratio of EC50 for human mGlu5 receptor expressed in HEK293 cells to EC50 for rat mGlu5 receptor expressed in HEK293 cells; format: cell-based

Sequence of Metabotropic glutamate receptor 5 (Rattus norvegicus) (P31424 21-1203 limits assumed): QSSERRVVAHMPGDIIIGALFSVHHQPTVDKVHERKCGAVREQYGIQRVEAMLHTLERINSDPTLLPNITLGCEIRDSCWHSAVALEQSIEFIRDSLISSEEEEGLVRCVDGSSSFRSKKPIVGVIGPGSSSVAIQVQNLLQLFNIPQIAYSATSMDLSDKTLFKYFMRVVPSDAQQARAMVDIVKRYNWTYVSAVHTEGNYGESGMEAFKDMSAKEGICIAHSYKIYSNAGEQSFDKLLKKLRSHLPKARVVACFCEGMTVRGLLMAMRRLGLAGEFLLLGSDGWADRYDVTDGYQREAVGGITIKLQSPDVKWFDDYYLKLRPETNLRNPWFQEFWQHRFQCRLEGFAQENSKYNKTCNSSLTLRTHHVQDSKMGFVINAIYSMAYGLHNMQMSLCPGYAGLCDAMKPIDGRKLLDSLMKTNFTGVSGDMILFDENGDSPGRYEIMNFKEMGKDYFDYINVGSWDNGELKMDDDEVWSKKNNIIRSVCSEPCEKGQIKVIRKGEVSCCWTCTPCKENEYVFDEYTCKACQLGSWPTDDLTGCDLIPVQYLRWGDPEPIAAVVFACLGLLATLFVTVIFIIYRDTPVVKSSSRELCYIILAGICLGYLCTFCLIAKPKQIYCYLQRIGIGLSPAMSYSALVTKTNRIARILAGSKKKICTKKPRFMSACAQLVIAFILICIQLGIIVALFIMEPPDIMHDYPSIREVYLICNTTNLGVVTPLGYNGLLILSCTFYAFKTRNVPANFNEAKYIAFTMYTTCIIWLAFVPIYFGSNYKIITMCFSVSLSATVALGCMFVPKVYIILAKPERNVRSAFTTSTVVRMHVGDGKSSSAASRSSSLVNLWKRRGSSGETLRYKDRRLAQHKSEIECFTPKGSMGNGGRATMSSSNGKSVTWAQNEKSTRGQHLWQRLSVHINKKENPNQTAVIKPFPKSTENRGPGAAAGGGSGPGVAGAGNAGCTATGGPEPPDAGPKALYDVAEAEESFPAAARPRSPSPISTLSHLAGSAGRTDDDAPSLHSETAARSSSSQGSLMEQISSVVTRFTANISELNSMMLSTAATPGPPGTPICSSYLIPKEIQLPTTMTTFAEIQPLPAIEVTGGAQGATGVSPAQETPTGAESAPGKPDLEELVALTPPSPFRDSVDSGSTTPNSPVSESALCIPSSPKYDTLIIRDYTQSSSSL
Sequence of Metabotropic glutamate receptor 2 (Homo sapiens) (Q14416 19-872 limits assumed): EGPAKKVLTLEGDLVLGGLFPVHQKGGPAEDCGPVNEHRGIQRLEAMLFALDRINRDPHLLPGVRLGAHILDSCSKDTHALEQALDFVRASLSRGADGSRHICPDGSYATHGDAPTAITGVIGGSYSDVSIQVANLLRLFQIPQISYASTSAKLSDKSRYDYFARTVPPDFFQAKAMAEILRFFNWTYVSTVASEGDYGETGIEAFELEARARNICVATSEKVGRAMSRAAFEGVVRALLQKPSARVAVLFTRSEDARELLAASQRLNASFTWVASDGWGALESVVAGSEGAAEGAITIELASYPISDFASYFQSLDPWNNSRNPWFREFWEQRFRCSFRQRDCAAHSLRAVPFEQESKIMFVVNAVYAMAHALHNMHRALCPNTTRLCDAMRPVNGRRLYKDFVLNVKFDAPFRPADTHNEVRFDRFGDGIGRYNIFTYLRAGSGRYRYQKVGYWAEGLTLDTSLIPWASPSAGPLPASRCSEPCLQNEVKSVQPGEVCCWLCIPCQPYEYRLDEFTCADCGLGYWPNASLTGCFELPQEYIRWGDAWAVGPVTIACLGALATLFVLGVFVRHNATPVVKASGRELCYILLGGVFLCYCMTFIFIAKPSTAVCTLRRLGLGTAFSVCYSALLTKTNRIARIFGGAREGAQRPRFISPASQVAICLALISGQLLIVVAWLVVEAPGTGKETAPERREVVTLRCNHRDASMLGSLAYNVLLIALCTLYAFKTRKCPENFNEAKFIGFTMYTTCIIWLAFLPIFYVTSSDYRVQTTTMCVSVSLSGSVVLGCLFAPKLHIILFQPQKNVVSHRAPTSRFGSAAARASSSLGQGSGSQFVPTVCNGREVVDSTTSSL
Sequence of Metabotropic glutamate receptor 3 (Homo sapiens) (Q14832 23-879 limits assumed): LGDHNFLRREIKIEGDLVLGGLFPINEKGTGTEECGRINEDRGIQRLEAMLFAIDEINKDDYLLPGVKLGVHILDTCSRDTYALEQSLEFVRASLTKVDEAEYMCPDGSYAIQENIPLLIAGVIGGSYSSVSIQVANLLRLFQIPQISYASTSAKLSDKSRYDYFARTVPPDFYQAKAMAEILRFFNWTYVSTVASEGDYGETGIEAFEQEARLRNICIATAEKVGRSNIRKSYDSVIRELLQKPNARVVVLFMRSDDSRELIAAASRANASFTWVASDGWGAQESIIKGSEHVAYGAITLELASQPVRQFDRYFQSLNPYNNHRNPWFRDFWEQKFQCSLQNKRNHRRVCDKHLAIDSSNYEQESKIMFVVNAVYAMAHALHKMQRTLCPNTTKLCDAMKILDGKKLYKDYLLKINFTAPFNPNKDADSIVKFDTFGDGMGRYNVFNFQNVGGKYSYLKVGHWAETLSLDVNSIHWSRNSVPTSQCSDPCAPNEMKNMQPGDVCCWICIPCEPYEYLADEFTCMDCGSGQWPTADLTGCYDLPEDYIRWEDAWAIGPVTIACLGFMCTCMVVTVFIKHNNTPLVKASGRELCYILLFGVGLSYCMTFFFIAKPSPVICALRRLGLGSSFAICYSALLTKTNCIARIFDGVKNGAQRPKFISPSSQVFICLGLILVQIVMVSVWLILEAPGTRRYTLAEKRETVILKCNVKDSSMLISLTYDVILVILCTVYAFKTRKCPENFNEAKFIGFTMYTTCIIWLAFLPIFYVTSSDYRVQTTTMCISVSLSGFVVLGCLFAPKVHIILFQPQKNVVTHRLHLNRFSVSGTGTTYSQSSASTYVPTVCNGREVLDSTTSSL
Sequence of Metabotropic glutamate receptor 6 (Homo sapiens) (O15303 whole entry): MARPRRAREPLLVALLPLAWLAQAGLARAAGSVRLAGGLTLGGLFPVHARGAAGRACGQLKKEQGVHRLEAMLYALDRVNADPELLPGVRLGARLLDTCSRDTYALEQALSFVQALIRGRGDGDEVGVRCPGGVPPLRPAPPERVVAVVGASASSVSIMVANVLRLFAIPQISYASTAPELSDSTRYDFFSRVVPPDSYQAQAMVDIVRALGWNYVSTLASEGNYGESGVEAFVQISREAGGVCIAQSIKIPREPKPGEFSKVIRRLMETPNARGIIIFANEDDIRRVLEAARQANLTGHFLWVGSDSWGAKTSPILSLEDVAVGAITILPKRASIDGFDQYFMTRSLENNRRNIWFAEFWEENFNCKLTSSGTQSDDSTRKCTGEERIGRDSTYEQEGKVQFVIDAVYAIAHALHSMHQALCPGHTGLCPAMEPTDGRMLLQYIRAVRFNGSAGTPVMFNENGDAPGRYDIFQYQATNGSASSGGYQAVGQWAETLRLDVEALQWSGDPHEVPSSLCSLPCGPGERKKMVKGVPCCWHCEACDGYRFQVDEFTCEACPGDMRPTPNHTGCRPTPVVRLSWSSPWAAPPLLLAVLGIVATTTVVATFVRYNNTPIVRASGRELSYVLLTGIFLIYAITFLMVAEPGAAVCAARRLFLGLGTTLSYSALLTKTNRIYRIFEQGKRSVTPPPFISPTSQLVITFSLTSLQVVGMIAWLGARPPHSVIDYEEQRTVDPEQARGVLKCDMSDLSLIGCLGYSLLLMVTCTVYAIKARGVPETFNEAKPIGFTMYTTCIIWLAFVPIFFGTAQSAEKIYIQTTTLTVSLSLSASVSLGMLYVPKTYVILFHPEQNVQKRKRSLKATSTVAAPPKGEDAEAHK

Row | SMILES | EC50 [1] | Emax [2] | Emax [19] | EC50 ([20]; read-out: EC50) | other results
1 | CCCC(C(=O)Nc1cccc(Cl)c1)N(c1ccccc1Cl)S(C)(=O)=O (racemic) | > 10000 nM | – | – | – | –
2 | Cn1cnc(S(=O)(=O)N2c3ccccc3CCC2C(=O)Nc2cccc(Cl)c2)c1 (racemic) | > 10000 nM | 75% | – | – | –
3 | CCC(C(=O)Nc1cccc(Cl)c1)N(c1ccccc1Cl)S(C)(=O)=O (racemic) | 3300 nM | – | – | – | –
4 | CS(=O)(=O)N(CC(=O)Nc1ccc(F)cn1)c1ccccc1Cl | 3720 nM | 66% | – | – | Fu (Plasma [3]): 0.17; Fu (Plasma [4]): 0.09; Stability (Liver microsomes): 39%
5 | CS(=O)(=O)N(CC(=O)NCC1CC1)c1cc(C(F)(F)F)ccc1Cl | 398 nM | 61% | 70% | 4.5 µM | IC50 [5]: > 10 µM; Kp [6]: 0.4; IC50 [7]: > 10 µM; IC50 [8]: > 10 µM; fraction unbound at 4 h, 5 µM [9]: 0.13; fraction unbound at 4 h, 5 µM [10]: 0.1; Activity [11]: > 10 µM; Activity [12]: > 10 µM; Activity [13]: > 10 µM; Activity [14]: > 10 µM; Activity [15]: > 10 µM; Activity [16]: > 10 µM; Activity [17]: > 10 µM; Ki [18]: > 30 µM
6 | O=S(=O)(c1ccc(F)cc1)N1CCC[C@H](c2nc(-c3ccc(F)cc3)no2)C1 | 3400 nM | 84% | 43% | > 10 µM | Activity [21]: inactive
7 | CS(=O)(=O)N1c2ccccc2CCC1C(=O)Nc1cccc(Cl)c1 (racemic) | 1000 nM | 60% | – | – | –
8 | CS(=O)(=O)N(CC(=O)Nc1cccc(Cl)c1)c1ccccc1Cl | 80 nM | 74% | 63% | 0.78 µM | Activity [11]: > 10 µM; Activity [12]: > 10 µM; Activity [13]: > 10 µM; Activity [14]: > 10 µM; Activity [15]: > 10 µM; Activity [16]: > 10 µM; Activity [17]: > 10 µM; Ratio EC50 (HEK293): 10; Ki [18]: > 10 µM
9 | O=S(=O)(c1ccc(C#Cc2cccc(F)c2)cc1)N1CCOCC1 | 457 nM | 55% | – | – | Activity [21]: inactive; EC50 ([20]; hek293): Not Active
10 | O=C(Nc1cccc(Cl)c1)[C@@H]1CCc2ccccc2N1S(=O)(=O)c1ccccc1F | 6700 nM | 78% | – | – | –
11 | CS(=O)(=O)N(CC(=O)Nc1ccc(F)nc1)c1ccccc1Cl | 4470 nM | 72% | 35% | > 10 µM | pEC50 ([20]; hek293): < 5
12 | CCS(=O)(=O)N1c2ccccc2CC[C@H]1C(=O)Nc1cccc(Cl)c1 | 2500 nM | 74% | – | – | –
13 | CS(=O)(=O)N(CC(=O)Nc1cccnc1F)c1ccccc1Cl | 1740 nM | 64% | 42% | > 10 µM | pEC50 ([20]; hek293): < 5
14 | CS(=O)(=O)N(CC(=O)Nc1ccccc1)c1ccccc1Cl | 70 nM | 61% | 77% | 1.38 µM | Fu (Plasma [3]): 0.13; Stability (Liver microsomes): <= 4%; Activity [12]: > 10 µM; Activity [13]: > 10 µM; Activity [14]: > 10 µM; Activity [15]: > 10 µM; Activity [16]: > 10 µM; Activity [17]: > 10 µM; Ki [18]: > 10 µM
15 | O=C(Nc1ccc(Cl)cc1CN1C(=O)c2ccccc2C1=O)c1ccccc1O | – | – | – | – | Ratio EC50 (HEK293): 3
16 | CS(=O)(=O)N1c2ccccc2CCC1C(=O)Nc1ccccn1 (racemic) | 1300 nM | 68% | – | – | –
17 | CC(C(=O)Nc1cccc(Cl)c1)N(c1ccccc1Cl)S(C)(=O)=O (racemic) | 68 nM | 43% | – | – | –
